Experimental data taken from patent US20150307938A1, “METHOD TO IDENTIFY A NOVEL CLASS OF IMMUNOLOGIC ADJUVANTS” (Lancell, L.L.C., priority 2011, published 2015).

System: skin
Test: Affymetrix microarray of skin, DBP-4 hr and analogs vs. untreated; gene selection by log-2 fold change, Wilcoxon, Kendall tau (Tables 8, 9)
Format: in vivo, mouse

## CCN(CC)C(=O)c1cccc(C)c1 [DEET, N,N-diethyl-toluamide]
Gene #1 of Table 8
  Log2 Expression Level: 6.74
Gene #2 of Table 8
  Log2 Expression Level: 6.44
Gene #3 of Table 8
  Log2 Expression Level: 9.66
Gene #4 of Table 8
  Log2 Expression Level: 9.66
Gene #5 of Table 8
  Log2 Expression Level: 8.20
Gene #6 of Table 8
  Log2 Expression Level: 7.42
Gene #7 of Table 8
  Log2 Expression Level: 6.76
Gene #8 of Table 8
  Log2 Expression Level: 7.42
Gene #9 of Table 8
  Log2 Expression Level: 7.42
Gene #10 of Table 8
  Log2 Expression Level: 7.42
Gene #11 of Table 8
  Log2 Expression Level: 6.76
Gene #12 of Table 8
  Log2 Expression Level: 6.76
Gene #13 of Table 8
  Log2 Expression Level: 6.76
Gene #14 of Table 8
  Log2 Expression Level: 5.31
Gene #15 of Table 8
  Log2 Expression Level: 5.31
Gene #16 of Table 8
  Log2 Expression Level: 7.68
Gene #17 of Table 8
  Log2 Expression Level: 9.60
Gene #18 of Table 8
  Log2 Expression Level: 9.60
Gene #19 of Table 8
  Log2 Expression Level: 10.04
Gene #20 of Table 8
  Log2 Expression Level: 11.87
Gene #21 of Table 8
  Log2 Expression Level: 9.61
Gene #22 of Table 8
  Log2 Expression Level: 8.47
Gene #23 of Table 8
  Log2 Expression Level: 7.75
Gene #24 of Table 8
  Log2 Expression Level: 8.21
Gene #25 of Table 8
  Log2 Expression Level: 8.21
Gene #26 of Table 8
  Log2 Expression Level: 8.83
Gene #27 of Table 8
  Log2 Expression Level: 8.83
Gene #28 of Table 8
  Log2 Expression Level: 8.83
Gene #29 of Table 8
  Log2 Expression Level: 7.20
Gene #30 of Table 8
  Log2 Expression Level: 9.06
Gene #31 of Table 8
  Log2 Expression Level: 9.06
Gene #32 of Table 8
  Log2 Expression Level: 9.06
Gene #33 of Table 8
  Log2 Expression Level: 6.10
Gene #34 of Table 8
  Log2 Expression Level: 7.43
Gene #35 of Table 8
  Log2 Expression Level: 7.43
Gene #36 of Table 8
  Log2 Expression Level: 9.66
Gene #37 of Table 8
  Log2 Expression Level: 9.66
Gene #38 of Table 8
  Log2 Expression Level: 9.66
Gene #39 of Table 8
  Log2 Expression Level: 8.11
Gene #40 of Table 8
  Log2 Expression Level: 8.22
Gene #41 of Table 8
  Log2 Expression Level: 8.43
Gene #42 of Table 8
  Log2 Expression Level: 7.97
Gene #43 of Table 8
  Log2 Expression Level: 7.97
Gene #44 of Table 8
  Log2 Expression Level: 8.43
Gene #45 of Table 8
  Log2 Expression Level: 7.97
Gene #46 of Table 8
  Log2 Expression Level: 8.43
Gene #47 of Table 8
  Log2 Expression Level: 9.23
Gene #48 of Table 8
  Log2 Expression Level: 9.23
Gene #49 of Table 8
  Log2 Expression Level: 9.23
Gene #50 of Table 8
  Log2 Expression Level: 10.17
Gene #51 of Table 8
  Log2 Expression Level: 8.15
Gene #52 of Table 8
  Log2 Expression Level: 10.64
Gene #53 of Table 8
  Log2 Expression Level: 9.22
Gene #54 of Table 8
  Log2 Expression Level: 10.01
Gene #55 of Table 8
  Log2 Expression Level: 8.18
Gene #56 of Table 8
  Log2 Expression Level: 10.41
Gene #57 of Table 8
  Log2 Expression Level: 9.06
Gene #58 of Table 8
  Log2 Expression Level: 9.46
Gene #59 of Table 8
  Log2 Expression Level: 8.46
Gene #60 of Table 8
  Log2 Expression Level: 7.24
Gene #61 of Table 8
  Log2 Expression Level: 12.16
Gene #62 of Table 8
  Log2 Expression Level: 8.52
Gene #63 of Table 8
  Log2 Expression Level: 11.76
Gene #64 of Table 8
  Log2 Expression Level: 11.40
Gene #65 of Table 8
  Log2 Expression Level: 8.25
Gene #66 of Table 8
  Log2 Expression Level: 9.07
Gene #67 of Table 8
  Log2 Expression Level: 5.71
Gene #68 of Table 8
  Log2 Expression Level: 10.87
Gene #69 of Table 8
  Log2 Expression Level: 7.06
Gene #70 of Table 8
  Log2 Expression Level: 5.72
Gene #71 of Table 8
  Log2 Expression Level: 7.84
Gene #72 of Table 8
  Log2 Expression Level: 9.65
Gene #73 of Table 8
  Log2 Expression Level: 8.88
Gene #74 of Table 8
  Log2 Expression Level: 7.48
Gene #75 of Table 8
  Log2 Expression Level: 10.04
Gene #76 of Table 8
  Log2 Expression Level: 5.76
Gene #77 of Table 8
  Log2 Expression Level: 9.62
Gene #78 of Table 8
  Log2 Expression Level: 9.85
Gene #79 of Table 8
  Log2 Expression Level: 8.03
Gene #80 of Table 8
  Log2 Expression Level: 13.18
Gene #81 of Table 8
  Log2 Expression Level: 6.94
Gene #82 of Table 8
  Log2 Expression Level: 6.28
Gene #83 of Table 8
  Log2 Expression Level: 8.09
Gene #84 of Table 8
  Log2 Expression Level: 8.70
Gene #85 of Table 8
  Log2 Expression Level: 9.57
Gene #86 of Table 8
  Log2 Expression Level: 8.02
Gene #87 of Table 8
  Log2 Expression Level: 11.32
Gene #88 of Table 8
  Log2 Expression Level: 10.03
Gene #89 of Table 8
  Log2 Expression Level: 6.25
Gene #90 of Table 8
  Log2 Expression Level: 11.13
Gene #91 of Table 8
  Log2 Expression Level: 9.01
Gene #92 of Table 8
  Log2 Expression Level: 7.14
Gene #93 of Table 8
  Log2 Expression Level: 10.13
Gene #94 of Table 8
  Log2 Expression Level: 9.19
Gene #95 of Table 8
  Log2 Expression Level: 7.20
Gene #96 of Table 8
  Log2 Expression Level: 9.02
Gene #97 of Table 8
  Log2 Expression Level: 5.86
Gene #98 of Table 8
  Log2 Expression Level: 6.82
Gene #99 of Table 8
  Log2 Expression Level: 10.05
Gene #100 of Table 8
  Log2 Expression Level: 8.86
